What was measured:
[1] = molecular target: T1, Human recombinant p38 enzyme (p38α) (Homo sapiens, UniProt Q16539); experiment: p38 Kinase Assay (ATF-2 phosphorylation ELISA); assay type: biochemical; settings: 2h pre-incubation with p38 kinase, ATP 250 μM, 1% DMSO; read-out: p38α inhibition (IC50)
T1 construct: purchased Calbiochem 559324; host or cells: E. coli
Procedure: Human recombinant p38 enzyme expressed in E. coli and activated by incubation with MKK6 enzyme (Calbiochem #559324) is used as source of enzyme activity.
The assay is carried in high binding, clear, flat bottom 96 well assay plates which have been coated with recombinant ATF-2 (Biosource #PHF0043). Test compounds are incubated with p38 kinase for 2h prior to initiating the kinase assay by the addition of ATP to obtain an assay concentration of 250 μM . Phosphorylation of ATF-2 is detected and quantified using an ELISA. This consists of sequential incubation in the presence of anti-phospho-ATF2, biotinylated anti-IgG and streptavidin-HRP. Incubation with an HRP chromogenic substrate (TMB) results in absorbance that is proportional to the amount of phosphorylated substrate produced. Absorbance is detected using a multiwell plate reader.
Compounds are diluted in DMSO prior to addition to assay buffer, the final DMSO concentration in the assay being 1%.
The IC50 is defined as the concentration at which a given compound achieves 50% inhibition of control.

[2] = test system: LPS activated THP-1 cells (TNFα release); experiment: p38 Functional Assay: TNFα release from LPS activated THP-1 cells; assay type: cell-based; settings: Homo sapiens, inhibition of TNFα release, 1h pre-treatment then LPS, 0.3% DMSO
Procedure: Inhibition of cellular p38 depresses the release of TNFα, a functional response which is quantified by measurement of the amount of TNFα in the supernatants of LPS activated THP-1 cells (an immortalised monocytic cell line) or peripheral blood mononuclear cells (PBMC's) isolated from freshly drawn human blood.
Cells seeded in 96 well plates are pre-treated by the addition of p38 inhibitors for 1h followed by addition of lipopolysaccharide (LPS) to activate cytokine production and release. The amount of TNFα released into the cell supernatants is quantified using an R&D Systems enzyme linked immunosorbant assay (ELISA) kit (product DY210) following the manufacturers instructions.
Compounds are diluted in DMSO prior to addition, the final DMSO concentration in the assay being 0.3%. The EC50 is defined as the concentration at which a given compound achieves 50% inhibition of the control.

T1 sequence (Q16539 whole entry): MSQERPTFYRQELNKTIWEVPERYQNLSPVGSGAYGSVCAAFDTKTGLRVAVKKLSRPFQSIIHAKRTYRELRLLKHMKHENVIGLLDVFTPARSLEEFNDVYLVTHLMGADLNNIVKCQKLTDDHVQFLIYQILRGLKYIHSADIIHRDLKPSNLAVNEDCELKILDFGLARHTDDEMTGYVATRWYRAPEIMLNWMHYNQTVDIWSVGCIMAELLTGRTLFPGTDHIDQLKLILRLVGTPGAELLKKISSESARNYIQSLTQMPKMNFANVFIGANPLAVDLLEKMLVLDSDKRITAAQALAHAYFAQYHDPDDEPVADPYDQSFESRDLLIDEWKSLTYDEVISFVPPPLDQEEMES

Compound | IC50 [1] | EC50 [2]
Cc1ccc(-n2nc(C(C)(C)C)cc2NC(=O)N[C@H]2C[C@H](Oc3ccc4nnc(C(C)C)n4c3)c3ccccc32)cc1 [Example 13, 1-(5-tert-Butyl-2-p-tolyl-2H-pyrazol-3-yl)-3-[(1S,3S)-3-(3-isopropyl-[1,2,4]triazolo[4,3-a]pyridin-6-yloxy)-indan-1-yl]-urea] | < 0.01 µM | –
Cc1ccc(-n2nc(C(C)(C)C)cc2NC(=O)N[C@@H]2CC[C@@H](Oc3ccc4nnc(C(C)C)n4c3)c3ccccc32)cc1 [Example 8, 1-(5-tert-Butyl-2-p-tolyl-2H-pyrazol-3-yl)-3-[(1R,4R)-4-(3-isopropyl-[1,2,4]triazolo[4,3-a]pyridin-6-yloxy)-1,2,3,4-tetrahydro-naphthalen-1-yl]-urea] | 0.1 to 0.5 µM | –
Cc1ccc(-n2nc(C(C)(C)C)cc2NC(=O)N[C@H]2CC[C@@H](Oc3ccc4nnc(C(C)C)n4c3)c3ccccc32)cc1 [Example 10, 1-(5-tert-Butyl-2-p-tolyl-2H-pyrazol-3-yl)-3-[(1S,4R)-4-(3-isopropyl-[1,2,4]triazolo[4,3-a]pyridin-6-yloxy)-1,2,3,4-tetrahydro-naphthalen-1-yl]-urea] | < 0.01 µM | < 0.01 µM
Cc1ccc(-n2nc(C(C)(C)C)cc2NC(=O)N[C@@H]2C[C@@H](Oc3ccc4nnc(C(C)C)n4c3)c3ccccc32)cc1 [Example 12, 1-(5-tert-Butyl-2-p-tolyl-2H-pyrazol-3-yl)-3-[(1R,3R)-3-(3-isopropyl[1,2,4]triazolo[4,3a]pyridin-6-yloxy)-indan-1-yl]urea] | 0.1 to 0.5 µM | –
Cc1ccc(-n2nc(C(C)(C)C)cc2NC(=O)N[C@H]2CC[C@@H](Oc3ccc4nnc(-c5ccccc5Cl)n4c3)c3ccccc32)cc1 (racemic) [Example 3, (+/−)1-(5-tert-Butyl-2-p-tolyl-2H-pyrazol-3-yl)-3-{4-[3-(2-chloro-phenyI)-[1,2,4]triazolo[4,3-a]pyridin-6-yloxy]-cis-1,2,3,4-tetrahydro-naphthalen-1-yl}-urea] | < 0.01 µM | < 0.01 µM
Cc1ccc(-n2nc(C(C)(C)C)cc2NC(=O)N[C@@H]2CC[C@H](Oc3ccc4nnc(C(C)C)n4c3)c3ccccc32)cc1 [Example 9, 1-(5-tert-Butyl-2-p-tolyl-2H-pyrazol-3-yl)-3-[(1R,4S)-4-(3-isopropyl-[1,2,4]triazolo[4,3-a]pyridin-6-yloxy)-1,2,3,4-tetrahydro-naphthalen-1-yl]-urea] | 0.1 to 0.5 µM | –
Cc1ccc(-n2nc(C(C)(C)C)cc2NC(=O)N[C@H]2CC[C@@H](Oc3ccc4nnc(-c5c(Cl)cccc5Cl)n4c3)c3ccccc32)cc1 (racemic) [Example 4, (+/−)1-(5-tert-Butyl-2-p-tolyl-2H-pyrazol-3-yl)-3-{4-[3-(2,6-dichloro-phenyl)[1,2,4]triazolo[4,3-a]pyridin-6-yloxy]-cis-1,2,3,4-tetrahydro-naphthalen-1-yl}-urea] | < 0.01 µM | < 0.01 µM
Cc1ccc(-n2nc(C(C)(C)C)cc2NC(=O)N[C@H]2CC[C@@H](Oc3ccc4nnc(-c5ccccc5O)n4c3)c3ccccc32)cc1 (racemic) [Example 7, (+/−) 1-(5-tert-Butyl-2-p-tolyl-2H-pyrazol-3-yl)-3-{4-[3-(2-hydroxy-phenyl) [1,2,4]triazolo[4,3-a]pyridin-6-yloxy]-cis-1,2,3,4-tetrahydro-naphthalen-1-yl}-urea] | < 0.01 µM | < 0.01 µM
Cc1ccc(-n2nc(C(C)(C)C)cc2NC(=O)N[C@H]2CC[C@H](Oc3ccc4nnc(C(C)C)n4c3)c3ccccc32)cc1 [Example 11, 1-(5-tert-Butyl-2-p-tolyl-2H-pyrazol-3-yl)-3-[(1S,4S)-4-(3-isopropyl-[1,2,4]triazolo[4,3-a]pyridin-6-yloxy)-1,2,3,4-tetrahydro-naphthalen-1-yl]-urea] | < 0.01 µM | < 0.01 µM
Cc1ccc(-n2nc(C(C)(C)C)cc2NC(=O)N[C@@H]2C[C@H](Oc3ccc4nnc(C(C)C)n4c3)c3ccccc32)cc1 [Example 14, 1-(5-tert-Butyl-2-p-tolyl-2H-pyrazol-3-yl)-3-[(1R,3S)-3-(3-isopropyl-[1,2,4]-triazolo[4,3-a]pyridin-6-yloxy)-indan-1-yl]-urea] | 0.5 to 7 µM | –
Cc1ccc(-n2nc(C(C)(C)C)cc2NC(=O)N[C@H]2CC[C@H](Oc3ccc4nnc(C(C)C)n4c3)c3ccccc32)cc1 (racemic) [Example 2, (+/−) 1-(5-tert-Butyl-2-p-tolyl-2H-pyrazol-3-yl)-3-[4-(3-isopropyl[1,2,4]triazolo[4,3-a]pyridin-6-yloxy)-trans-1,2,3,4-tetrahydro-naphthalen-1-yl]-urea] | < 0.01 µM | < 0.01 µM
Cc1ccc(-n2nc(C(C)(C)C)cc2NC(=O)N[C@H]2CC[C@@H](Oc3ccc4nnc(C(C)C)n4c3)c3ccccc32)cc1 (racemic) [Example 1, (+/−) 1-(5-tert-Butyl-2-p-tolyl-2H-pyrazol-3-yl)-3-[4-(3-isopropyl-[1,2,4]-triazolo[4,3-a]pyridin-6-yloxy)-cis-1,2,3,4-tetrahydro-naphthalen-1-yl]-urea] | < 0.01 µM | < 0.01 µM
Cc1ccc(-n2nc(C(C)(C)C)cc2NC(=O)N[C@H]2CC[C@@H](Oc3ccc4nnc(-c5ccccc5OCc5ccccc5)n4c3)c3ccccc32)cc1 (racemic) [Example 5] | 0.01 to 0.1 µM | –
CC(C)c1nnc2ccc(O[C@@H]3CC[C@H](NC(=O)Nc4cc(C(C)(C)C)on4)c4ccccc43)cn12 (racemic) [Example 6, (+/−) 1-(5-tert-Butyl-isoxazol-3-yl)-3-[4-(3-isopropyl-[1,2,4]triazolo[4,3-a]pyridin-6-yloxy)-cis-1,2,3,4-tetrahydro-naphthalen-1-yl]-urea] | < 0.01 µM | < 0.01 µM

Continued, values first:

IC50 [1] | EC50 [2] | Compound
< 0.01 µM | – | COc1c(NC(=O)N[C@H]2CC[C@H](Oc3ccc4nnc(C(C)C)n4c3)c3ccccc32)cc(C(C)(C)C)cc1NS(C)(=O)=O [Example 17, N-(5-tert-Butyl-3-{3-[(1S,4S)-4-(3-isopropyl-[1,2,4]triazolo[4,3-a]pyridin-6-yloxy)-1,2,3,4-tetrahydro-naphthalen-1-yl]-ureido}-2-methoxy-phenyl)-methanesulfonamide]
0.5 to 7 µM | – | Cc1ccc(-n2nc(C(C)(C)C)cc2NC(=O)N[C@H]2C[C@@H](Oc3ccc4nnc(C(C)C)n4c3)c3ccccc32)cc1 [Example 15, 1-(5-tert-Butyl-2-p-tolyl-2H-pyrazol-3-yl)-3-[(1S,3R)-3-(3-isopropyl-[1,2,4]triazolo[4,3-a]pyridin-6-yloxy)-indan-1-yl]-urea]
< 0.01 µM | – | Cc1ccc(-n2nc(C(C)(C)C)cc2NC(=O)N[C@H]2CC[C@H](Oc3ccc4nnc(-c5ccccc5SCCO)n4c3)c3ccccc32)cc1 [Example 20, 1-(5-tert-Butyl-2-p-tolyl-2H-pyrazol-3-yl)-3-((1S,4S)-4-{3-[2-(2-hydroxy-ethylsulfanyl)-phenyl]-[1,2,4]triazolo[4,3-a]pyridin-6-yloxy}-1,2,3,4-tetrahydro-naphthalen-1-yl)-urea]
< 0.01 µM | – | COCC(=O)Nc1cc(CO[C@H]2CC[C@H](NC(=O)Nc3cc(C(C)(C)C)nn3-c3ccc(C)cc3)c3ccccc32)ccn1 [Example 22, N-(4-{(1S,4S)-4-[3-(5-tert-Butyl-2-p-tolyl-2H-pyrazol-3-yl)-ureido]-1,2,3,4-tetrahydro-naphthalen-1-yloxymethyl}-pyridin-2-yl)-2-methoxy-acetamide]
0.01 to 0.1 µM | – | Cc1ccc(-n2nc(C(C)(C)C)cc2NC(=O)N[C@H]2CCC[C@H](Oc3ccc4nnc(C(C)C)n4c3)c3ccccc32)cc1 (racemic) [Example 19, (+/−) 1-(5-tert-Butyl-2-p-tolyl-2H-pyrazol-3-yl)-3-[9-(3-isopropyl-[1,2,4]triazolo[4,3-a]pyridin-6-yloxy)-trans-6,7,8,9-tetrahydro-5H-benzocyclohepten-5-yl]-urea]
0.01 to 0.1 µM | – | Cc1ccc(-n2nc(C(C)(C)C)cc2NC(=O)N[C@H]2CCC[C@@H](Oc3ccc4nnc(C(C)C)n4c3)c3ccccc32)cc1 (racemic) [Example 18, (+/−) 1-(5-tert-Butyl-2-p-tolyl-2H-pyrazol-3-yl)-3-[9-(3-isopropyl-[1,2,4]triazolo[4,3-a]pyridin-6-yloxy)-cis-6,7,8,9-tetrahydro-5H-benzocyclohepten-5-yl]-urea]
< 0.01 µM | – | CC(C)c1nnc2ccc(O[C@H]3CC[C@H](NC(=O)Nc4cc(C(C)(C)C)on4)c4ccccc43)cn12 [Example 16, 1-(5-tert-Butyl-isoxazol-3-yl)-3-[(1S,4S)-4-(3-isopropyl-[1,2,4]-triazolo[4,3-a]pyridin-6-yloxy)-1,2,3,4-tetrahydro-naphthalen-1-yl]-urea]

— patent publication US8916708B2, “Urea derivatives and their therapeutic use in the treatment of, inter alia, diseases of the respiratory tract” (Chiesi Farmaceutici S.p.A., priority 2010, dated 2014)
